In the CheMixHub viscosity set:
± gives the uncertainty stated by the source.

Assay: xn = mol fraction of the nth substance listed

CCC(C)O (stereo not drawn) + CN(C)C=O
viscosity [mPa·s], 101 kPa
Conditions | 298.15 K | 303.15 K | 308.15 K | 313.15 K
x2 = 0.085 | 2.48 ± 0.06 | 2.11 ± 0.05 | 1.78 ± 0.04 | 1.52 ± 0.03
x2 = 0.164 | 2.2 ± 0.1 | 1.83 ± 0.04 | 1.57 ± 0.04 | 1.35 ± 0.03
x2 = 0.2446 | 2 ± 0.05 | 1.65 ± 0.04 | 1.41 ± 0.03 | 1.23 ± 0.03
x2 = 0.3503 | 1.8 ± 0.1 | 1.5 ± 0.1 | 1.29 ± 0.03 | 1.13 ± 0.03
x2 = 0.4398 | 1.65 ± 0.04 | 1.39 ± 0.03 | 1.19 ± 0.03 | 1.07 ± 0.02
x2 = 0.5035 | 1.51 ± 0.37 | – | – | –
x2 = 0.5738 | 1.44 ± 0.03 | 1.23 ± 0.03 | 1.08 ± 0.02 | 1.01 ± 0.02
x2 = 0.6512 | 1.32 ± 0.03 | 1.14 ± 0.03 | 1.02 ± 0.02 | 0.97 ± 0.02
x2 = 0.7515 | 1.17 ± 0.03 | 1.03 ± 0.02 | 0.93 ± 0.02 | 0.91 ± 0.02
x2 = 0.841 | 1.03 ± 0.02 | 0.93 ± 0.02 | 0.85 ± 0.02 | 0.86 ± 0.02
x2 = 0.9435 | 0.88 ± 0.02 | 0.82 ± 0.02 | 0.76 ± 0.02 | 0.79 ± 0.02

Nc1ccccc1Cl + Clc1cccc(Cl)c1
viscosity [mPa·s], 101 kPa
Conditions | x1 = 0.1088 | x1 = 0.2155 | x1 = 0.3202 | x1 = 0.4228 | x1 = 0.5235 | x1 = 0.6224 | x1 = 0.7194 | x1 = 0.8147 | x1 = 0.9082
303.15 K | 1.108 ± 0.023 | 1.292 ± 0.027 | 1.499 ± 0.031 | 1.732 ± 0.036 | 1.994 ± 0.042 | 2.288 ± 0.048 | 2.615 ± 0.054 | 2.979 ± 0.062 | 3.382 ± 0.07
308.15 K | 1.043 ± 0.022 | 1.211 ± 0.025 | 1.398 ± 0.029 | 1.607 ± 0.034 | 1.84 ± 0.038 | 2.098 ± 0.044 | 2.382 ± 0.05 | 2.695 ± 0.056 | 3.038 ± 0.063
313.15 K | 0.9857 ± 0.021 | 1.138 ± 0.024 | 1.308 ± 0.027 | 1.496 ± 0.031 | 1.703 ± 0.036 | 1.931 ± 0.04 | 2.179 ± 0.045 | 2.45 ± 0.051 | 2.743 ± 0.057
318.15 K | 0.9257 ± 0.019 | 1.066 ± 0.022 | 1.222 ± 0.025 | 1.392 ± 0.029 | 1.579 ± 0.033 | 1.781 ± 0.037 | 2.001 ± 0.042 | 2.237 ± 0.047 | 2.491 ± 0.052

Nc1ccccc1Cl + Cc1ccccc1Cl
viscosity [mPa·s], 101 kPa
Conditions | x1 = 0.11 | x1 = 0.2176 | x1 = 0.3228 | x1 = 0.4258 | x1 = 0.5266 | x1 = 0.6253 | x1 = 0.7219 | x1 = 0.8165 | x1 = 0.9092
303.15 K | 1.073 ± 0.027 | 1.284 ± 0.031 | 1.521 ± 0.036 | 1.782 ± 0.042 | 2.069 ± 0.048 | 2.379 ± 0.055 | 2.711 ± 0.062 | 3.065 ± 0.07 | 3.437 ± 0.078
308.15 K | 0.9808 ± 0.025 | 1.175 ± 0.029 | 1.392 ± 0.034 | 1.63 ± 0.039 | 1.888 ± 0.044 | 2.164 ± 0.05 | 2.458 ± 0.057 | 2.765 ± 0.064 | 3.084 ± 0.071
313.15 K | 0.8896 ± 0.023 | 1.07 ± 0.027 | 1.271 ± 0.031 | 1.49 ± 0.036 | 1.726 ± 0.041 | 1.976 ± 0.046 | 2.238 ± 0.052 | 2.507 ± 0.058 | 2.783 ± 0.064
318.15 K | 0.7935 ± 0.021 | 0.9642 ± 0.024 | 1.153 ± 0.028 | 1.358 ± 0.033 | 1.578 ± 0.038 | 1.808 ± 0.043 | 2.045 ± 0.048 | 2.286 ± 0.053 | 2.526 ± 0.058

O=S1(=O)CCCC1 + Cc1ccccc1C
viscosity [mPa·s], 101.3 kPa
Conditions | x2 = 0.1118 | x2 = 0.2206 | x2 = 0.3267 | x2 = 0.4301 | x2 = 0.5311 | x2 = 0.6293 | x2 = 0.7254 | x2 = 0.8191 | x2 = 0.9105
303.15 K | 6.89 ± 0.28 | 4.875 ± 0.21 | 3.582 ± 0.16 | 2.692 ± 0.12 | 2.066 ± 0.095 | 1.618 ± 0.076 | 1.243 ± 0.06 | 1.04 ± 0.051 | 0.8453 ± 0.043
323.15 K | 4.358 ± 0.19 | 3.169 ± 0.14 | 2.397 ± 0.11 | 1.854 ± 0.086 | 1.456 ± 0.069 | 1.173 ± 0.057 | 0.9211 ± 0.046 | 0.8044 ± 0.041 | 0.6503 ± 0.034

C1CC[NH2+]C1.CCCCCCCC(=O)[O-] + CC#N
viscosity [mPa·s], 101 kPa
Conditions | x1 = 0.1601 | x1 = 0.2228 | x1 = 0.2843 | x1 = 0.3982 | x1 = 0.4849 | x1 = 0.609 | x1 = 0.6946 | x1 = 0.7891 | x1 = 0.9081
293.15 K | 5.42 ± 1.1 | 6.71 ± 1.3 | 7.22 ± 1.4 | 11.37 ± 2.3 | 13.54 ± 2.7 | 18.24 ± 3.7 | 24.41 ± 4.9 | 33.6 ± 6.8 | 51.93 ± 10
298.15 K | 4.61 ± 0.92 | 6.42 ± 1.3 | 7.9 ± 1.6 | 9.98 ± 2 | 12.08 ± 2.4 | 16.32 ± 3.3 | 22.17 ± 4.5 | 30.5 ± 6.1 | 44.73 ± 9
303.15 K | 3.37 ± 0.68 | 3.58 ± 0.72 | 5.31 ± 1.1 | 8.14 ± 1.6 | 9.96 ± 2 | 14.01 ± 2.8 | 17.35 ± 3.5 | 24.21 ± 4.9 | 35.95 ± 7.2
308.15 K | 2.41 ± 0.48 | 3.39 ± 0.68 | 5.02 ± 1 | 7.88 ± 1.6 | 9.48 ± 1.9 | 13.07 ± 2.6 | 15.79 ± 3.2 | 21.95 ± 4.4 | 30.54 ± 6.2
313.15 K | 1.92 ± 0.39 | 2.99 ± 0.6 | 4.35 ± 0.87 | 6.59 ± 1.3 | 8.46 ± 1.7 | 10.7 ± 2.1 | 14.2 ± 2.9 | 18.22 ± 3.7 | 25.69 ± 5.2

O=S1(=O)CCCC1 + CC(C)(C)O
viscosity [mPa·s], 101 kPa
Conditions | x1 = 0.1916 | x1 = 0.2786 | x1 = 0.3584 | x1 = 0.4717 | x1 = 0.5569 | x1 = 0.6312 | x1 = 0.732 | x1 = 0.8339 | x1 = 0.9188
303.15 K | 2.995 ± 0.037 | 3.12 ± 0.036 | 3.325 ± 0.039 | 3.712 ± 0.044 | 4.135 ± 0.049 | 4.595 ± 0.056 | 5.495 ± 0.068 | 6.747 ± 0.085 | 8.277 ± 0.11
308.15 K | 2.513 ± 0.029 | 2.644 ± 0.031 | 2.844 ± 0.033 | 3.213 ± 0.038 | 3.602 ± 0.043 | 4.022 ± 0.048 | 4.832 ± 0.059 | 5.938 ± 0.074 | 7.276 ± 0.092
313.15 K | 2.121 ± 0.024 | 2.266 ± 0.026 | 2.467 ± 0.029 | 2.806 ± 0.033 | 3.169 ± 0.037 | 3.553 ± 0.042 | 4.285 ± 0.051 | 5.264 ± 0.064 | 6.424 ± 0.08
